The source of these data is paper PMC4423513, “Function of glutathione peroxidases in legume root nodules” (Journal of Experimental Botany, 2015).

One test relates to LjGpx3. Nature of the test: NADPH oxidation at […] nm, thioredoxin-coupled, steady state. The class given is biochemical, Lotus japonicus. The following applies: apparent Km, 20 μM poplar Trxh1, 1 μM A. thaliana NADPH-Trx reductase, 0.4 mM NADPH, 30 mM Tris-HCl pH 8.0, 1 mM EDTA.
A further test has as its target T1, LjGpx1 (Lotus japonicus, UniProt Q56VU1).
T1 sequence (Q56VU1 72-236): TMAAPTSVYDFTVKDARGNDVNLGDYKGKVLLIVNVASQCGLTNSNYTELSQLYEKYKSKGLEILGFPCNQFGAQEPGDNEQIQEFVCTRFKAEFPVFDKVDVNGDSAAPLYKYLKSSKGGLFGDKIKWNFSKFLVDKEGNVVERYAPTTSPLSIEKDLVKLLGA
The description is as above. In kind it is biochemical. As to conditions: apparent Km; 20 μM poplar Trxh1, 1 μM A. thaliana NADPH-Trx reductase, 0.4 mM NADPH, 30 mM Tris-HCl pH 8.0, 1 mM EDTA; acyl chains of lipid not defined.

The term Km denotes the concentration of substrate that gives half-maximal velocity.

With Phosphatidylcholine hydroperoxide, the Michaelis constant (Km) in the test with LjGpx3 (acyl chains of lipid not defined) and at LjGpx1 was 1.6 µM throughout.
As to `CC(C)(C)OO` [t-Butyl hydroperoxide], the Km in the test with LjGpx3 stood at 167 µM.
For `CC(C)(OO)c1ccccc1` [Cumene hydroperoxide], in the test with LjGpx3, the Michaelis-Menten constant (Km) is 214 µM.
